Data from PMC3711437, “Real-time detection of DNA topological changes with a fluorescently labeled cruciform” (Nucleic Acids Research, 2013).

Molecular target: T1, E. coli gyrase holoenzyme (GyrA and GyrB) (Escherichia coli, UniProt P0AES4+P0AES6)
T1 construct: His-tagged GyrA and GyrB expressed separately in E. coli BL21-CodonPlus(DE3)-RIL, tags cleaved with TEV protease, Ni-NTA and S200 purified; used as holoenzyme
Test: supercoiling, fluorescent cruciform extrusion, NCC screen
Assay type: biochemical
Excerpt: supercoiling, fluorescent cruciform extrusion, NCC screen on E. coli gyrase holoenzyme (GyrA and GyrB)

T1 sequence (P0AES4 whole entry, one chain of several): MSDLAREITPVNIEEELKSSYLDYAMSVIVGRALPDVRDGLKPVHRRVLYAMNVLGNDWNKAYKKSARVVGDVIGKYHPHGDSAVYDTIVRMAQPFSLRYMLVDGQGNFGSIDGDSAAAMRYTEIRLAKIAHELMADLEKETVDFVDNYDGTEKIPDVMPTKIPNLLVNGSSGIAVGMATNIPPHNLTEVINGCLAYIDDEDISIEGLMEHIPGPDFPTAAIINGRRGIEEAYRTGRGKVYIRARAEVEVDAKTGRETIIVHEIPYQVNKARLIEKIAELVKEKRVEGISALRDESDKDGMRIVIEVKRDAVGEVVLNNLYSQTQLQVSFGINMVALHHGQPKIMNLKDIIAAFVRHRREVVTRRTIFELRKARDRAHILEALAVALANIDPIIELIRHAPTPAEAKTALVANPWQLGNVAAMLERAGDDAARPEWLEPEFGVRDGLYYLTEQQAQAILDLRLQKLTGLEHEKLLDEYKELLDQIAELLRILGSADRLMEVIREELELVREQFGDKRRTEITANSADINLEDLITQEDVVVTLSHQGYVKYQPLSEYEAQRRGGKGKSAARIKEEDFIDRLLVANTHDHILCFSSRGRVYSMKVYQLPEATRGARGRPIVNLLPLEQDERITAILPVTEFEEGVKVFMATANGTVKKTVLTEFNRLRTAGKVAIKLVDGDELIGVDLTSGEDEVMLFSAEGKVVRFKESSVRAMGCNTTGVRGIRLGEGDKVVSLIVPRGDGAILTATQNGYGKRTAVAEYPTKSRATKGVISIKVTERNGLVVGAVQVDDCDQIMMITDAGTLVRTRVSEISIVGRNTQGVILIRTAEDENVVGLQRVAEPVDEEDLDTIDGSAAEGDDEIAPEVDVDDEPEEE

Row | SMILES | inhibition at 50 µM [%]
1 | CCN1CCN(c2cc3c(cc2F)c(=O)c(C(=O)O)cn3C2CC2)CC1 [Enrofloxacin] | 67
2 | CCn1cc(C(=O)O)c(=O)c2cc(F)c(N3CCN(C)CC3)cc21 [Pefloxacin] | 95
3 | CN1CCN(c2c(F)cc3c(=O)c(C(=O)O)cn4c3c2SCC4)CC1 [Rufloxacin] | 89
4 | NC1CCN(c2nc3c(cc2F)c(=O)c(C(=O)O)cn3-c2ccc(F)cc2F)C1 (stereo not shown) [Tosufloxacin] | 96
